Measured values taken from patent US20240287074A1, “SALTS AND CRYSTALS” (Kinoxis Therapeutics Pty Ltd, priority 2020, published 2024).
Counter-ions that a name gives are not always drawn. Like-named read-outs stand apart in the source and are kept apart here.

Experiments:
[1] = Solvent solubility screen of phosphate salt; format: physicochemical; details: for solubility: read-out: Approx. Solubility
Procedure: Selected solvent was added in 50 μL aliquots to approximately 10 mg of poorly crystalline phosphate pattern (obtained from above lyophilisation). Between each addition, the mixture was checked for dissolution and where no dissolution was apparent, the mixture was heated to about 40° C. and checked again. This procedure was continued until dissolution was observed or until 2 mL of solvent had been added. Samples in which dissolution was observed were stored uncapped at ambient temperature to allow evaporation. Samples in which dissolution was not observed were filtered via centrifugation. All observed solids were analyzed by XRPD. The solvent systems used during the solvent solubility screen are detailed in Table 3.

[2] = Storage of phosphate pattern 2 at 40° C./75% RH; format: physicochemical; details: about 16 hours
Procedure: The samples were analyzed by XRPD.

**Q.** With `Cn1ncc2c1Nc1ccccc1NC2` [phosphate pattern 2, phosphoric acid addition salt of 1-methyl-1,4,5,10-tetrahydropyrazolo[3,4-b][1,5]benzodiazepine] as the compound, how does the solubility ([1]; 1,4-dioxane, 40 °C, organic solvent or mixture, thermodynamic from solid, 1,4-Dioxane) read?
**A.** < 5000 µg/mL

**Q.** And the solubility ([1]; 2-Butanol, 40 °C, organic solvent or mixture, thermodynamic from solid, 2-Butanol)?
**A.** < 5000 µg/mL

**Q.** What about the solubility ([1]; 2-Ethoxyethanol, 40 °C, organic solvent or mixture, thermodynamic from solid, 2-Ethoxyethanol) of the same compound?
**A.** < 5000 µg/mL

**Q.** And the solubility ([1]; 2-methyl tetrahydrofuran, 40 °C, organic solvent or mixture, thermodynamic from solid, 2-Methyl tetrahydrofuran)?
**A.** < 5000 µg/mL

**Q.** What about the solubility ([1]; 2-propanol, 40 °C, organic solvent or mixture, thermodynamic from solid, 2-Propanol) of the same compound?
**A.** < 5000 µg/mL

**Q.** What about the solubility ([1]; 80% 2-propanol/20% water (% v/v), 40 °C, organic solvent or mixture, thermodynamic from solid, 80% 2-Propanol/20% water (% v/v)) of the same compound?
**A.** < 5000 µg/mL

**Q.** And the solubility ([1]; 80% acetone/20% water (% v/v), 40 °C, organic solvent or mixture, thermodynamic from solid, 80% Acetone/20% water (% v/v))?
**A.** < 5000 µg/mL

**Q.** What about the solubility ([1]; 80% acetonitrile/20% water (% v/v), 40 °C, organic solvent or mixture, thermodynamic from solid, 80% Acetonitrile/20% water (% v/v)) of the same compound?
**A.** < 5000 µg/mL

**Q.** And the solubility ([1]; 80% methanol/20% water (% v/v), 40 °C, organic solvent or mixture, thermodynamic from solid, 80% Methanol/20% water (% v/v))?
**A.** < 5000 µg/mL

**Q.** What about the “Approx. Solubility” value ([1]; N-Methyl pyrrolidone) of the same compound?
**A.** 17000 µg/mL

**Q.** And the solubility ([1]; N-methyl pyrrolidone, organic solvent or mixture, thermodynamic from solid, N-Methyl pyrrolidone)?
**A.** 10000 to 100000 µg/mL

**Q.** What about the “Approx. Solubility” value ([1]; Water) of the same compound?
**A.** 17000 µg/mL

**Q.** What about the solubility ([1]; acetone, 40 °C, organic solvent or mixture, thermodynamic from solid, Acetone) of the same compound?
**A.** < 5000 µg/mL

**Q.** And the solubility ([1]; acetonitrile, 40 °C, organic solvent or mixture, thermodynamic from solid, Acetonitrile)?
**A.** < 5000 µg/mL

**Q.** And the solubility ([1]; anisole, 40 °C, organic solvent or mixture, thermodynamic from solid, Anisole)?
**A.** < 5000 µg/mL

**Q.** And the solubility ([1]; chloroform, 40 °C, organic solvent or mixture, thermodynamic from solid, Chloroform)?
**A.** < 5000 µg/mL

**Q.** And the solubility ([1]; ethanol, 40 °C, organic solvent or mixture, thermodynamic from solid, Ethanol)?
**A.** < 5000 µg/mL

**Q.** What about the solubility ([1]; ethanol/water Aw 0.4, 40 °C, organic solvent or mixture, thermodynamic from solid, Ethanol/water Aw 0.4) of the same compound?
**A.** < 5000 µg/mL

**Q.** What about the solubility ([1]; ethanol/water Aw 0.5, 40 °C, organic solvent or mixture, thermodynamic from solid, Ethanol/water Aw 0.5) of the same compound?
**A.** < 5000 µg/mL

**Q.** And the solubility ([1]; ethanol/water Aw 0.6, 40 °C, organic solvent or mixture, thermodynamic from solid, Ethanol/water Aw 0.6)?
**A.** < 5000 µg/mL

**Q.** And the solubility ([1]; ethanol/water Aw 0.7, 40 °C, organic solvent or mixture, thermodynamic from solid, Ethanol/water Aw 0.7)?
**A.** < 5000 µg/mL

**Q.** And the solubility ([1]; ethanol/water Aw 0.8, 40 °C, organic solvent or mixture, thermodynamic from solid, Ethanol/water Aw 0.8)?
**A.** < 5000 µg/mL

**Q.** And the solubility ([1]; ethyl acetate, 40 °C, organic solvent or mixture, thermodynamic from solid, Ethyl acetate)?
**A.** < 5000 µg/mL

**Q.** And the solubility ([1]; ethyl formate, 40 °C, organic solvent or mixture, thermodynamic from solid, Ethyl formate)?
**A.** < 5000 µg/mL

**Q.** And the solubility ([1]; ethyleneglycol, 40 °C, organic solvent or mixture, thermodynamic from solid, Ethyleneglycol)?
**A.** < 5000 µg/mL

**Q.** What about the solubility ([1]; isopropyl acetate, 40 °C, organic solvent or mixture, thermodynamic from solid, Isopropyl acetate) of the same compound?
**A.** < 5000 µg/mL

**Q.** And the solubility ([1]; methanol, 40 °C, organic solvent or mixture, thermodynamic from solid, Methanol)?
**A.** < 5000 µg/mL

**Q.** And the solubility ([1]; methylethyl ketone, organic solvent or mixture, thermodynamic from solid, Methylethyl ketone)?
**A.** < 5000 µg/mL

**Q.** And the solubility ([1]; methylisobutyl ketone, organic solvent or mixture, thermodynamic from solid, Methylisobutyl ketone)?
**A.** < 5000 µg/mL

**Q.** What about the solubility ([1]; nitromethane, organic solvent or mixture, thermodynamic from solid, Nitromethane) of the same compound?
**A.** < 5000 µg/mL

**Q.** And the solubility ([1]; tert-butylmethyl ether, organic solvent or mixture, thermodynamic from solid, tert-Butylmethyl ether)?
**A.** < 5000 µg/mL

**Q.** What about the solubility ([1]; tetrahydrofuran, organic solvent or mixture, thermodynamic from solid, Tetrahydrofuran) of the same compound?
**A.** < 5000 µg/mL

**Q.** What about the solubility ([1]; water, thermodynamic from solid, Water) of the same compound?
**A.** 10000 to 100000 µg/mL

**Q.** What about the “form by XRPD upon storage at 40° C./75% RH” value [2] of the same compound?
**A.** completely converted to form 1
